Data published in patent US20150031668A1, “CHROMAN DERIVATIVES AS TRPM8 INHIBITORS” (AMGEN INC., priority 2013, published 2015).

Molecular target: T1, human TRPM8 (Homo sapiens, UniProt Q7Z2W7)
T1 construct: expressed in transfected cells; host or cells: Chinese hamster ovary (CHO) cells, T-REx tetracycline-inducible expression system (Invitrogen); co-transfected with pcDNA3.1 aequorin
Experiment: Luminescence readout assay for measuring intracellular calcium (aequorin, CHO cells expressing human TRPM8; icilin, L-menthol or cold activation)
Format: cell-based
Conditions: CHO cells expressing human TRPM8, icilin activation (1 μM), aequorin luminescence; read-out: hTRPM8 IC50
Description: Luminescence Readout Assay for Measuring Intracellular Calcium
A stable Chinese hamster ovary cell line expressing human TRPM8 was generated using tetracycline inducible T-REx™ expression system from Invitrogen, Inc. (Carlsbad, Calif.). […] Twenty four hours before the assay, cells were seeded in 96-well plates and TRPM8 expression was induced with 0.5 μg/ml tetracycline. On the day of the assay, culture media was removed and cells were incubated with assay buffer
Potential antagonists were added 2.5 min prior to the addition of agonist, 1 μM icilin, 100 μM L-menthol, or 1 min prior to the addition of cold buffer (<10° C.). The luminescence was measured by a CCD camera based FLASH-luminometer built by Amgen, Inc. A cooling device attached to FLASH luminometer was used for cold activation.

T1 sequence (Q7Z2W7 whole entry): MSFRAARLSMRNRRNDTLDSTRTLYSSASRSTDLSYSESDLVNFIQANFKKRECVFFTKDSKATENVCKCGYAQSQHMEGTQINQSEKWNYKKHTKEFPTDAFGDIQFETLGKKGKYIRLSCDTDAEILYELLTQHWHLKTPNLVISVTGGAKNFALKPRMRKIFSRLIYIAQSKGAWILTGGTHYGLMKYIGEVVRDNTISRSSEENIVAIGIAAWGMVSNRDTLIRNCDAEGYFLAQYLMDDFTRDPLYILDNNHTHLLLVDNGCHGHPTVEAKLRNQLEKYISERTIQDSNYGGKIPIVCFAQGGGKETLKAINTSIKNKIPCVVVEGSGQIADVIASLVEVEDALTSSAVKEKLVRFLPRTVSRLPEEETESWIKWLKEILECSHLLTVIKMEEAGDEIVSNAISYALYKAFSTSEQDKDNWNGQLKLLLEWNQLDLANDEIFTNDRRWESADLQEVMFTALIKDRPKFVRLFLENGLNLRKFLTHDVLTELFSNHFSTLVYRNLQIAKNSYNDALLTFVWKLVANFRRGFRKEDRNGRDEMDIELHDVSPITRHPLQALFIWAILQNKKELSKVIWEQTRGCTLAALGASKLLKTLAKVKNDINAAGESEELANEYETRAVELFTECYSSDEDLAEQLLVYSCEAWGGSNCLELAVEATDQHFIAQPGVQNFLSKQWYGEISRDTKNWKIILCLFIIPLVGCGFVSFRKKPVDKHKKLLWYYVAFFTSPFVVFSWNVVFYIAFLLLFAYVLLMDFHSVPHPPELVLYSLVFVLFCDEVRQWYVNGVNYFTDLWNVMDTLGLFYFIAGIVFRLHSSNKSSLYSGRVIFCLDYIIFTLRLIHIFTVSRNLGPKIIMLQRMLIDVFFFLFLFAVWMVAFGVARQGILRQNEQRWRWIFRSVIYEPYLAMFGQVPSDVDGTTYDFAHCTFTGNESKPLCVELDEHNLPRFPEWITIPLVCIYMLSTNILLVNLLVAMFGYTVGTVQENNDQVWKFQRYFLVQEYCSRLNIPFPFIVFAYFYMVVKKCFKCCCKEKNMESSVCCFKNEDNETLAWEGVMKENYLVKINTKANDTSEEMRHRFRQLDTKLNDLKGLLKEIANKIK

Compound | IC50 [nM]
O=C(NC1(c2ccc(C(F)(F)F)cc2)CCCc2cccnc21)c1ccc(=O)[nH]c1 (stereo not shown) [Example 31, 6-oxo-N-(8-(4-(trifluoromethyl)phenyl)-5,6,7,8-tetrahydroquinolin-8-yl)-1,6-dihydropyridine-3-carboxamide] | 784
COc1ccc(C(=O)N[C@]2(c3ccc(C(F)(F)F)cc3)CCOc3cccnc32)cn1 [Example 32, (S)-6-methoxy-N-(4-(4-(trifluoromethyl)phenyl)-3,4-dihydro-2H-pyrano[3,2-b]pyridin-4-yl)nicotinamide] | 51
O=C(N[C@]1(c2ccc(C(F)(F)F)cc2)CCOc2cccnc21)c1ccncn1 [Example 35, (S)-N-(4-(4-(trifluoromethyl)phenyl)-3,4-dihydro-2H-pyrano[3,2-b]pyridin-4-yl)pyrimidine-4-carboxamide] | 200
O=C(N[C@]1(c2ccc(C(F)(F)F)cc2)CCOc2cccnc21)c1ccnnc1 [Example 37, (S)-N-(4-(4-(trifluoromethyl)phenyl)-3,4-dihydro-2H-pyrano[3,2-b]pyridin-4-yl)pyridazine-4-carboxamide] | 2620
O=C(N[C@]1(c2ccc(C(F)(F)F)cc2)CCOc2cccnc21)c1cncs1 [Example 39, (S)-N-(4-(4-(trifluoromethyl)phenyl)-3,4-dihydro-2H-pyrano[3,2-b]pyridin-4-yl)thiazole-5-carboxamide] | 269
O=C(N[C@]1(c2ccc(C(F)(F)F)cc2)CCOc2cccnc21)c1ccns1 [Example 41, (S)-N-(4-(4-(trifluoromethyl)phenyl)-3,4-dihydro-2H-pyrano[3,2-b]pyridin-4-yl)isothiazole-5-carboxamide] | 87
CC(=O)Nc1ccc(C(=O)N[C@]2(c3ccc(C(F)(F)F)cc3)CCOc3cccnc32)nc1 [Example 43, (S)-5-acetamido-N-(4-(4-(trifluoromethyl)phenyl)-3,4-dihydro-2H-pyrano[3,2-b]pyridin-4-yl)picolinamide] | 111
O=C(N[C@]1(c2ccc(C(F)(F)F)cc2)CCOc2cccnc21)c1c[nH]c(=O)cn1 [Example 45, (S)-5-oxo-N-(4-(4-(trifluoromethyl)phenyl)-3,4-dihydro-2H-pyrano[3,2-b]pyridin-4-yl)-4,5-dihydropyrazine-2-carboxamide] | 38
O=C(N[C@]1(c2ccc(C(F)(F)F)cc2)CCOc2cccnc21)c1ccncc1 [Example 46, (S)-N-(4-(4-(trifluoromethyl)phenyl)-3,4-dihydro-2H-pyrano[3,2-b]pyridin-4-yl)isonicotinamide] | 358
COc1ccc(C(=O)N[C@]2(c3ccc(C(F)(F)F)cc3)CCOc3cccnc32)nn1 [Example 47, (S)-6-methoxy-N-(4-(4-(trifluoromethyl)phenyl)-3,4-dihydro-2H-pyrano[3,2-b]pyridin-4-yl)pyridazine-3-carboxamide] | 82
O=C(N[C@]1(c2ccc(C(F)(F)F)cc2)CCOc2cccnc21)c1cccnc1 [Example 48, (S)-N-(4-(4-(trifluoromethyl)phenyl)-3,4-dihydro-2H-pyrano[3,2-b]pyridin-4-yl)nicotinamide] | 481
O=C(N[C@]1(c2ccc(C(F)(F)F)cc2)CCOc2cccnc21)c1ccn2ccnc2c1 [Example 49, (S)-N-(4-(4-(trifluoromethyl)phenyl)-3,4-dihydro-2H-pyrano[3,2-b]pyridin-4-yl)imidazo[1,2-a]pyridine-7-carboxamide] | 43
O=C(N[C@]1(c2ccc(C(F)(F)F)cc2)CCOc2cccnc21)c1ccc(=O)[nH]c1 [Example 60, (S)-6-oxo-N-(4-(4-(trifluoromethyl)phenyl)-3,4-dihydro-2H-pyrano[3,2-b]pyridin-4-yl)-1,6-dihydropyridine-3-carboxamide] | 125
O=C(N[C@]1(c2ccc(OC(F)(F)F)c(F)c2)CCOc2cccnc21)c1ccc([N+](=O)[O-])cn1 [Example 62, (S)-N-(4-(3-fluoro-4-(trifluoromethoxy)phenyl)-3,4-dihydro-2H-pyrano[3,2-b]pyridin-4-yl)-5-nitropicolinamide] | 51
O=C(N[C@]1(c2ccc(OC(F)(F)F)c(F)c2)CCOc2cccnc21)c1ccc2[nH]c(=O)c(=O)[nH]c2c1 [Example 64, (S)—N-(4-(3-fluoro-4-(trifluoromethoxy)phenyl)-3,4-dihydro-2H-pyrano[3,2-b]pyridin-4-yl)-2,3-dioxo-1,2,3,4-tetrahydroquinoxaline-6-carboxamide] | 335

Now those with a lower IC50, led by results:

IC50 [nM] | Compound
19 | COC(=O)c1ccc(C(=O)NC2(c3ccc(OC(F)(F)F)c(F)c3)CCOc3cccnc32)nc1 (stereo not shown) [Example 30, methyl 6-((4-(3-fluoro-4-(trifluoromethoxy)phenyl)-3,4-dihydro-2H-pyrano[3,2-b]pyridin-4-yl)carbamoyl)nicotinate]
5 | O=C1CCc2cc(C(=O)N[C@]3(c4ccc(C(F)(F)F)cc4)CCOc4cccnc43)ccc2N1 [Example 33, (S)-2-oxo-N-(4-(4-(trifluoromethyl)phenyl)-3,4-dihydro-2H-pyrano[3,2-b]pyridin-4-yl)-1,2,3,4-tetrahydroquinoline-6-carboxamide]
24 | O=C(N[C@]1(c2ccc(C(F)(F)F)cc2)CCOc2cccnc21)c1ccc2cn[nH]c2c1 [Example 34, (S)-N-(4-(4-(trifluoromethyl)phenyl)-3,4-dihydro-2H-pyrano[3,2-b]pyridin-4-yl)-1H-indazole-6-carboxamide]
36 | O=C(N[C@]1(c2ccc(C(F)(F)F)cc2)CCOc2cccnc21)c1ccc2cc[nH]c2c1 [Example 36, (S)-N-(4-(4-(trifluoromethyl)phenyl)-3,4-dihydro-2H-pyrano[3,2-b]pyridin-4-yl)-1H-indole-6-carboxamide]
20 | Cn1ncc2ccc(C(=O)N[C@]3(c4ccc(C(F)(F)F)cc4)CCOc4cccnc43)cc21 [Example 38, (S)-1-methyl-N-(4-(4-(trifluoromethyl)phenyl)-3,4-dihydro-2H-pyrano[3,2-b]pyridin-4-yl)-1H-indazole-6-carboxamide]
7 | O=C(N[C@]1(c2ccc(C(F)(F)F)cc2)CCOc2cccnc21)c1ccc(O)cn1 [Example 40, (S)-5-hydroxy-N-(4-(4-(trifluoromethyl)phenyl)-3,4-dihydro-2H-pyrano[3,2-b]pyridin-4-yl)picolinamide]
24 | Cn1ccc2cc(C(=O)N[C@]3(c4ccc(C(F)(F)F)cc4)CCOc4cccnc43)ccc21 [Example 42, (S)-1-methyl-N-(4-(4-(trifluoromethyl)phenyl)-3,4-dihydro-2H-pyrano[3,2-b]pyridin-4-yl)-1H-indole-5-carboxamide]
8 | Cn1ncc2cc(C(=O)N[C@]3(c4ccc(C(F)(F)F)cc4)CCOc4cccnc43)ccc21 [Example 44, (S)-1-methyl-N-(4-(4-(trifluoromethyl)phenyl)-3,4-dihydro-2H-pyrano[3,2-b]pyridin-4-yl)-1H-indazole-5-carboxamide]
5 | O=C(N[C@]1(c2ccc(OC(F)(F)F)c(F)c2)CCOc2cccnc21)c1ccc(O)cn1 [Example 51, (S)-N-(4-(3-fluoro-4-(trifluoromethoxy)phenyl)-3,4-dihydro-2H-pyrano[3,2-b]pyridin-4-yl)-5-hydroxypicolinamide]
16 | O=C(N[C@]1(c2ccc(OC(F)(F)F)c(F)c2)CCOc2cccnc21)c1ccc2nccn2c1 [Example 52, (S)-N-(4-(3-fluoro-4-(trifluoromethoxy)phenyl)-3,4-dihydro-2H-pyrano[3,2-b]pyridin-4-yl)imidazo[1,2-a]pyridine-6-carboxamide]
15 | Cn1ncc2cc(C(=O)N[C@]3(c4ccc(OC(F)(F)F)c(F)c4)CCOc4cccnc43)ccc21 [Example 53, (S)-N-(4-(3-fluoro-4-(trifluoromethoxy)phenyl)-3,4-dihydro-2H-pyrano[3,2-b]pyridin-4-yl)-1-methyl-1H-indazole-5-carboxamide]
11 | O=C1CCc2cc(C(=O)N[C@]3(c4ccc(OC(F)(F)F)c(F)c4)CCOc4cccnc43)ccc2N1 [Example 54, (S)-N-(4-(3-fluoro-4-(trifluoromethoxy)phenyl)-3,4-dihydro-2H-pyrano[3,2-b]pyridin-4-yl)-2-oxo-1,2,3,4-tetrahydroquinoline-6-carboxamide]
22 | O=C(N[C@]1(c2ccc(OC(F)(F)F)c(F)c2)CCOc2cccnc21)c1ccc(F)cn1 [Example 55, (S)-5-fluoro-N-(4-(3-fluoro-4-(trifluoromethoxy)phenyl)-3,4-dihydro-2H-pyrano[3,2-b]pyridin-4-yl)picolinamide]
21 | O=C(N[C@]1(c2ccc(C(F)(F)F)cc2)CCOc2cccnc21)c1ccc2cccnc2c1 [Example 56, (S)-N-(4-(4-(trifluoromethyl)phenyl)-3,4-dihydro-2H-pyrano[3,2-b]pyridin-4-yl)quinoline-7-carboxamide]
4 | O=C(N[C@]1(c2ccc(OC(F)(F)F)c(F)c2)CCOc2cccnc21)c1ccc2oc(=O)[nH]c2c1 [Example 57, (S)-N-(4-(3-fluoro-4-(trifluoromethoxy)phenyl)-3,4-dihydro-2H-pyrano[3,2-b]pyridin-4-yl)-2-oxo-2,3-dihydrobenzo[d]oxazole-5-carboxamide]
19 | CNC(=O)c1ccc(C(=O)N[C@]2(c3ccc(OC(F)(F)F)c(F)c3)CCOc3cccnc32)cn1 [Example 63, (S)-N5-(4-(3-fluoro-4-(trifluoromethoxy)phenyl)-3,4-dihydro-2H-pyrano[3,2-b]pyridin-4-yl)-N2-methylpyridine-2,5-dicarboxamide]
